What was measured:
[1] = target: Serine/threonine-protein kinase PLK1 (Homo sapiens, UniProt P53350); test: Inhibition of PLK1
[2] = target: Cyclin-dependent kinase 2/cyclin A (Homo sapiens, UniProt P24941); test: Inhibition of CDK2/cyclin A; assay type: protein-complex assay
[3] = target: T1, Aurora kinase A (Homo sapiens, UniProt O14965); test: Inhibition of Aurora-A
T1 sequence (O14965 whole entry): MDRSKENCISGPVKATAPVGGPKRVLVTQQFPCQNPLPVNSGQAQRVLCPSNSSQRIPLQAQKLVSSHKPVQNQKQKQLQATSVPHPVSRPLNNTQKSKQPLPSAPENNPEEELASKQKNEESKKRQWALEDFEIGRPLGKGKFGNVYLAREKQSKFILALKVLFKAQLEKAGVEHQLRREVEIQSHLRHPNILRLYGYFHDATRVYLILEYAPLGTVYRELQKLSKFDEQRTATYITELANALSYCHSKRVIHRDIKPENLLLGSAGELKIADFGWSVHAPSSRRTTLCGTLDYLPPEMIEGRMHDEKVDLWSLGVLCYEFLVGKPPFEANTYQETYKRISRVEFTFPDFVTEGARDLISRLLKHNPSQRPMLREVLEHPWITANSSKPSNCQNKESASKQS

[4] = target: Serine/threonine-protein kinase PLK2 (Homo sapiens, UniProt Q9NYY3); test: Inhibition of PLK2
Chain of Serine/threonine-protein kinase PLK2 (Q9NYY3 whole entry): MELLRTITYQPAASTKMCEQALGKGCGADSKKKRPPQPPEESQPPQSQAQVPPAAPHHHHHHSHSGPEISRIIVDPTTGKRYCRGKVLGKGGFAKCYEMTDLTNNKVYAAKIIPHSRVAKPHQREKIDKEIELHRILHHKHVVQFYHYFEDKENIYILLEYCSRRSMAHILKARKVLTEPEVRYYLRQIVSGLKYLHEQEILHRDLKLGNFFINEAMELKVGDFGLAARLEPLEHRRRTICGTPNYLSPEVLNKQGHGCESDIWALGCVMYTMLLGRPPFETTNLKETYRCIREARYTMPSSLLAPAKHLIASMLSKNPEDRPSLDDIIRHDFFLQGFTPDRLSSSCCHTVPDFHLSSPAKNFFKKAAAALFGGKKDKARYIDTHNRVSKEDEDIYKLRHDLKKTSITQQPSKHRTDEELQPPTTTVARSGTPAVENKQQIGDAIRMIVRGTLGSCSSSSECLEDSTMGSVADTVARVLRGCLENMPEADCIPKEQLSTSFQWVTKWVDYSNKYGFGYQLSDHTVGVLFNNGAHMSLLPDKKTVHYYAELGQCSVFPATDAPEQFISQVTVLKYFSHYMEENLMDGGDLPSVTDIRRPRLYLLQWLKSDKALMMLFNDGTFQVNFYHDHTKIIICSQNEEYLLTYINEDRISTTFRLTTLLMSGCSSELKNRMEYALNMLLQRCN

[5] = target: Serine/threonine-protein kinase PLK3 (Homo sapiens, UniProt Q9H4B4); test: Inhibition of PLK3
Chain of Serine/threonine-protein kinase PLK3 (Q9H4B4 whole entry): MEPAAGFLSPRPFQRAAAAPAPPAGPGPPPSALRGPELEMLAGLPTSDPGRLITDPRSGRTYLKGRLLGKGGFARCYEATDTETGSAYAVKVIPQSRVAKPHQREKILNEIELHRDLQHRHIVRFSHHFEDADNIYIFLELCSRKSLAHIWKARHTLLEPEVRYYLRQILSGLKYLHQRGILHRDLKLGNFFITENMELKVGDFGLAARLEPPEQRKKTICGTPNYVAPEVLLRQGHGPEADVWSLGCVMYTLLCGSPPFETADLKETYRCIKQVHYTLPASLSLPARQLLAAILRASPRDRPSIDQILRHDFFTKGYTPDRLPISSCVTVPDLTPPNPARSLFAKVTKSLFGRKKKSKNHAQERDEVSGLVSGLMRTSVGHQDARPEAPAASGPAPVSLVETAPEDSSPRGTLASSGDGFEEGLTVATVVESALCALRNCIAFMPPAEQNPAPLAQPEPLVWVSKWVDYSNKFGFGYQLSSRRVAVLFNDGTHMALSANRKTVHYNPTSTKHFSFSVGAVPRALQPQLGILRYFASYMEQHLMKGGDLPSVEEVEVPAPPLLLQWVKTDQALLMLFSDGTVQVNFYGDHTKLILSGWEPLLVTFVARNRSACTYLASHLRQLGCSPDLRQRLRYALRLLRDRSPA

[6] = tested on: A2780; test: Antiproliferative activity against human A2780 cells; assay type: functional, cell-based

Chain of Serine/threonine-protein kinase PLK1 (P53350 whole entry): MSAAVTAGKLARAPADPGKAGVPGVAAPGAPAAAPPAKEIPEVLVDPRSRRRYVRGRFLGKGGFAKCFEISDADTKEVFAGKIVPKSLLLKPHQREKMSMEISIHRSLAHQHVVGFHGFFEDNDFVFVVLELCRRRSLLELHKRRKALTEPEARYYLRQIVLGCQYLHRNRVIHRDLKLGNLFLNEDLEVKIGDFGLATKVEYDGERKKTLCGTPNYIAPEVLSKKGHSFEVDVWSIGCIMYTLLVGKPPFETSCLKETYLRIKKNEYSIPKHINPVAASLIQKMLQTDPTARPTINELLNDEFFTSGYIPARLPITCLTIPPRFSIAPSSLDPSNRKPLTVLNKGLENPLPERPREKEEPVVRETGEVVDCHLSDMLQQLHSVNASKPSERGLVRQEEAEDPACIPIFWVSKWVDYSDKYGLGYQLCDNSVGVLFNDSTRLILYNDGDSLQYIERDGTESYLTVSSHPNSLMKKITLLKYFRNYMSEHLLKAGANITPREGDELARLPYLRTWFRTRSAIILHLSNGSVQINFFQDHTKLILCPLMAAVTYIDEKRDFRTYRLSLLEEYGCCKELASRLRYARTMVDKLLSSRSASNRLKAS

SMILES	IC50 [1] [µM]	IC50 [2] [µM]	IC50 [3] [µM]	IC50 [4] [µM]	IC50 [5] [µM]	IC50 [6] [µM]
NC(=O)c1c[nH]c(-c2ccnc(N)n2)c1	> 10	> 10	> 10			
CN1CCN(c2ccc(OC(F)(F)F)c(Nc3nccc(-c4cc(C(N)=O)cn4CC(F)(F)F)n3)c2)CC1	0.018	> 10	> 10	> 10	> 10	0.109
Cn1cc(C(N)=O)cc1-c1ccnc(Nc2cc(N3CCN(C(=O)OC(C)(C)C)CC3)ccc2OC(F)(F)F)n1	> 10	> 10	> 10	> 10	> 10	4.51
CN1CCN(c2ccc(OC(F)(F)F)c(Nc3nccc(-c4cc5c(n4CCO)CCNC5=O)n3)c2)CC1	0.102	> 10	> 10	> 10	> 10	0.722
Cn1cc(C(N)=O)cc1-c1ccnc(Nc2cc(N3CCNCC3)ccc2OC(F)(F)F)n1	0.018	> 10	> 10	> 10	> 10	0.61
CN1CCN(c2ccc(OC(F)(F)F)c(Nc3nccc(-c4cc(C(N)=O)cn4CCO)n3)c2)CC1	0.151	> 10	> 10	> 10	> 10	2.53
Nc1nccc(-c2cc3c([nH]2)CCNC3=O)n1	1.13	0.219	> 10			1.53
